# Assay results as given in patent US20080072640A1, “Insecticidal Fertilizer Solids and Method of Preparation” (priority 2006, published 2008).
# Assay: Solubility of imidacloprid in organic solvents
# Assay type: physicochemical
# Description: U.S. Pat. No. 5,783,203 mentions acetone as a solvent for imidacloprid. […] Using a 6 wt % solution imidacloprid in acetone would mean applying 1.67 wt % of the solution on the fertilizer based on the combined weight of the fertilizer and the solution to achieve a product with 0.10 wt % imidacloprid. This would be very difficult to achieve a dry product. Fertilizer products with 0.2 wt % and 0.5 wt % imidacloprid would require 3.33 wt % and 8.33 wt % respectively of the imidacloprid solution absorbed onto the fertilizer; concentrations which are not likely feasible in acetone. In addition, acetone is highly flammable which would make processing very difficult and expensive.
# Preferably, the solvent system for use in the present invention consists essentially of either N-methyl-2-pyrrolidone or DMSO. […] Amine-stabilized or caustic-stabilized N-vinyl-pyrrolidone can form a solution with imidacloprid in an amount of about 15 wt % at 25° C. […] The solvent system can consist essentially of N-methyl-2-pyrrolidone, DMSO or a mixture of either N-methyl-2-pyrrolidone or DMSO with one or more co-solvents.
# An imidacloprid solution was prepared by dissolving imidacloprid in dimethyl sulfoxide (DMSO). […] The resulting solution can be sprayed onto a particulate fertilizer in an amount to provide a dry particulate composition containing about 0.1 wt % imidacloprid.
# The solubility of imidacloprid TGAI in N-methyl-2-pyrrolidone (NMP) was investigated. NMP has a favorable flash point of 187° F. (closed cup), mild odor, and is slow to volatilize, which are all very favorable properties. […] A 30 wt % solution can easily be prepared to spray onto fertilizer solids. Spraying a 0.50 wt % solution on fertilizer would achieve 0.15 wt % active ingredient. Spraying a 0.67 wt % solution and 1.67% wt % solution would achieve 0.20 wt % and 0.50 wt % active ingredient, respectively. These are highly plausible concentrations for use.
smiles,measurement,setting,value
"O=[N+]([O-])NC1=NCCN1Cc1ccc(Cl)nc1 [imidacloprid, 1-((6-chloro-3-pyridinyl)methyl)-N-nitro-2-imidazolidinimine]",solubility of imidacloprid in NMP,"solvent N-methyl-2-pyrrolidone (NMP), room temperature",~35 wt %
same,solubility of imidacloprid in N-methyl-2-pyrrolidone,"solvent N-methyl-2-pyrrolidone, 25° C.",about 32 wt %
same,solubility of imidacloprid in acetone,solvent acetone,less than 7 wt %
same,solubility of imidacloprid in N-vinyl-pyrrolidone,"solvent amine-stabilized or caustic-stabilized N-vinyl-pyrrolidone, 25° C.",about 15 wt %
same,solubility of imidacloprid in DMSO,"solvent dimethyl sulfoxide, room temperature of about 23° C.",about 32 wt %
